Laboratory results reported in the supplement of paper PMC12137928.
Counter-ions that a name gives are not always drawn.

Test system: HCT116
Conditions: 72 h
In short: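 For IC50 and maximal efficacy, four-parameter Hill fits were used. Input values were CellTiter-Glo luminescence from HCT116 cells seeded at 250 per well in 1536-well plates, normalized to vehicle (0%) and positive control (-100%). Pattern correction followed normalization.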

Compound | IC50 cell viability (ICRF193 0 nM) | IC50 cell viability (ICRF193 200 nM)
C/C=C/C=C/C(=O)O [Sorbic acid] | > 45.8 µM | > 45.8 µM
CN(C(=O)/C=C/c1ccoc1)[C@@H]1CC[C@@]2(O)[C@H]3Cc4ccc(O)c5c4[C@@]2(CCN3CC2CC2)[C@H]1O5 [Nalfurafine hydrochloride] | > 45.8 µM | > 45.8 µM
CN(N=O)C(=O)N[C@@H](C=O)[C@@H](O)[C@H](O)[C@H](O)CO [Streptozotocin] | > 45.8 µM | > 45.8 µM
O=C1N=C(N2CCOCC2)CN1c1ccc(Cl)cc1 [AWD 131-138] | > 45.8 µM | > 45.8 µM
C=C1C[C@@H]2[C@H](CC[C@]3(C)C(=O)CC[C@@H]23)[C@@]2(C)C=CC(=O)C=C12 [Exemestane] | > 45.8 µM | > 45.8 µM
C[C@H](O)[C@H](O)[C@H]1CNc2nc(N)[nH]c(=O)c2N1 [(6R)-5,6,7,8-Tetrahydrobiopterin dihydrochloride] | > 45.8 µM | > 45.8 µM
Clc1ccc2c(c1)CCc1cccnc1C2=C1CCNCC1 [Desloratadine] | > 45.8 µM | > 45.8 µM
COC(=O)c1ccc(O)cc1 [Methylparaben] | > 45.8 µM | > 45.8 µM
CCCOc1ccc2nc(NC(=O)OC)sc2c1 [Tioxidazole] | > 45.8 µM | > 45.8 µM
CCCCOc1ccc(C[N+]2(C)[C@@H]3CC[C@H]2C[C@H](OC(=O)C(CO)c2ccccc2)C3)cc1 (stereo partly specified) [Butropium Bromide] | > 45.8 µM | > 45.8 µM
CC(CN(C)C)CN1c2ccccc2Sc2ccccc21 (stereo unspecified) [Trimeprazine tartrate] | > 45.8 µM | > 45.8 µM
Nc1ccn(C[C@@H](CO)OCP(=O)(O)O)c(=O)n1 [Cidofovir] | > 45.8 µM | > 45.8 µM
O=[N+]([O-])c1ccc([As](=O)(O)O)cc1 [Nitarsone] | > 45.8 µM | > 45.8 µM
Nc1ccc(/N=N/c2ccccc2)c(N)n1 [Phenazopyridine hydrochloride] | > 45.8 µM | > 45.8 µM
CN(C)CCC(O)(c1ccccc1)c1ccccc1Cl (stereo unspecified) [Chlophedianol] | > 45.8 µM | > 45.8 µM
CCCCC1C(=O)NC(=O)N(C2CCCCC2)C1=O (stereo unspecified) [Bucolome] | > 45.8 µM | > 45.8 µM
CCN1CCN(C(=O)N[C@@H](C(=O)N[C@@H]2C(=O)N3C(C(=O)O)=C(CSc4nnnn4C)CS[C@H]23)c2ccc(O)cc2)C(=O)C1=O [Cefoperazone sodium] | > 45.8 µM | > 45.8 µM
Oc1ccc2c3c1O[C@H]1[C@@H](O)CC[C@@]4(O)[C@@H](C2)N(CC2CCC2)CC[C@]314 [Nalbuphine hydrochloride] | > 45.8 µM | > 45.8 µM
C[N@+]1(CC2CC2)CC[C@]23c4c5ccc(O)c4O[C@H]2C(=O)CC[C@@]3(O)[C@H]1C5 [Methylnaltrexone Bromide] | > 45.8 µM | > 45.8 µM

Compound | IC50 cell viability (ICRF193 0 nM) | IC50 cell viability (ICRF193 200 nM)
N=C(N)NC(=O)c1nc(Cl)c(N)nc1N [Amiloride] | > 45.8 µM | > 45.8 µM
N=C(N/N=C/c1ccc(Cl)cc1)N/N=C/c1ccc(Cl)cc1 [Robenidine] | > 45.8 µM | > 45.8 µM
CC(C)=CCC/C(C)=C/C=C/C(C)=C/C=C/C(C)=C/C=C/C=C(C)/C=C/C=C(C)/C=C/C=C(\C)CCC=C(C)C [Lycopene] | > 45.8 µM | > 45.8 µM
Nc1ccc(S(=O)(=O)NC(=O)c2ccccc2)cc1 [Sulfabenzamide] | > 45.8 µM | > 45.8 µM
Cn1c(=O)c2[nH]c(Br)nc2n(C)c1=O [8-Bromotheophylline] | > 45.8 µM | > 45.8 µM
CC(C)C[C@H](NC(=O)[C@@H](Cc1c[nH]c2ccccc12)NC(=O)[C@H](Cc1ccc(O)cc1)NC(=O)[C@H](CO)NC(=O)[C@H](Cc1c[nH]c2ccccc12)NC(=O)[C@H](Cc1c[nH]cn1)NC(=O)[C@@H]1CCC(=O)N1)C(=O)N[C@@H](CCCNC(=N)N)C(=O)N1CCC[C@H]1C(=O)NCC(N)=O [Triptorelin] | > 45.8 µM | > 45.8 µM
CSCCNc1nc(SCCC(F)(F)F)nc2c1ncn2[C@@H]1O[C@H](COP(=O)(O)OP(=O)(O)C(Cl)(Cl)P(=O)(O)O)[C@@H](O)[C@H]1O | > 45.8 µM | > 45.8 µM
CCCCNc1ccc(C(=O)OCCN(CC)CC)cc1 [Depolipon] | > 45.8 µM | > 45.8 µM
O=C(Nc1ccccc1)OCC(CN1CCCCC1)OC(=O)Nc1ccccc1 (stereo unspecified) [Diperodon hydrochloride] | > 45.8 µM | > 45.8 µM
CC(=O)Nc1ccc(O)cc1 [Acetaminophen] | > 45.8 µM | > 45.8 µM
CC(C)NCC(O)c1ccc(O)c(O)c1 (stereo unspecified) [Isoprenaline hydrochloride] | > 45.8 µM | > 45.8 µM
CC(C)[N+](C)(CCC(C(N)=O)(c1ccccc1)c1ccccc1)C(C)C [Isopropamide] | > 45.8 µM | > 45.8 µM
Cc1cccc(C)c1NC(=O)C1CCCCN1C (stereo unspecified) [MEPIVACAINE HYDROCHLORIDE] | > 45.8 µM | > 45.8 µM
CCCNC(C)(C)COC(=O)c1ccccc1 [Meprylcaine hydrochloride] | > 45.8 µM | > 45.8 µM
COC(c1ccccc1)(c1ccccc1)[C@H](Oc1nc(C)cc(C)n1)C(=O)O [Ambrisentan] | > 45.8 µM | > 45.8 µM
C[N+]1(C)CCN(CC(O)(c2ccccc2)C2CCCCC2)CC1 (stereo unspecified) [Hexocyclium] | > 45.8 µM | > 45.8 µM
C#C[C@]1(O)CC[C@H]2[C@@H]3CCC4=CCCC[C@@H]4[C@H]3C(=C)C[C@@]21CC [Desogestrel] | > 45.8 µM | > 45.8 µM
Cc1ccc(C(C)C)cc2c(C)ccc1-2 [Guaiazulene] | > 45.8 µM | > 45.8 µM

The remaining lines, values ahead:

IC50 cell viability (ICRF193 0 nM) | IC50 cell viability (ICRF193 200 nM) | Compound
> 45.8 µM | > 45.8 µM | CCCCOc1cc(C(=O)OCCN(CC)CC)ccc1N [Benoxinate hydrochloride]
> 45.8 µM | > 45.8 µM | C=C1[C@H](CO)[C@@H](O)C[C@@H]1n1cnc2c(=O)[nH]c(N)nc21 [Entecavir (monohydrate)]
> 45.8 µM | > 45.8 µM | CCC(C)n1ncn(-c2ccc(N3CCN(c4ccc(OCC5COC(Cn6cncn6)(c6ccc(Cl)cc6Cl)O5)cc4)CC3)cc2)c1=O (stereo unspecified) [Itraconazole]
> 45.8 µM | > 45.8 µM | NC(=O)c1ccc[n+]([C@@H]2O[C@H](COP(=O)([O-])OP(=O)(O)OC[C@H]3O[C@@H](n4cnc5c(N)ncnc54)[C@H](O)[C@@H]3O)[C@@H](O)[C@H]2O)c1 [NAD+]
> 45.8 µM | > 45.8 µM | CC(=O)c1cc2cccc(OCC(O)CNC(C)C)c2o1 (stereo unspecified) [Befunolol]
> 45.8 µM | > 45.8 µM | C[N+]1(CC2COC(c3ccccc3)(c3ccccc3)O2)CCCCC1 (stereo unspecified) [Anacolin]
> 45.8 µM | > 45.8 µM | CO/N=C(\C(=O)N[C@@H]1C(=O)N2C(C(=O)O)=C(CSc3nnnn3C)CS[C@H]12)c1csc(N)n1 [CEFMENOXIME HYDROCHLORIDE]
> 45.8 µM | > 45.8 µM | CCOc1ccc(NS(=O)(=O)c2ccc(N)cc2)nn1 [Sulfaethoxypyridazine]
> 45.8 µM | > 45.8 µM | CC1(C)O[C@@H]2[C@@H](CO[C@@]3(COS(N)(=O)=O)OC(C)(C)O[C@@H]23)O1 [Topiramate]
> 45.8 µM | > 45.8 µM | C[C@]12C=CC(=O)C=C1CC[C@@H]1[C@@H]2C(=O)C[C@@]2(C)[C@H]1CC[C@]2(O)C(=O)CO [Prednisone]
> 45.8 µM | > 45.8 µM | Cc1cn([C@H]2C[C@H](N=[N+]=[N-])[C@@H](CO)O2)c(=O)[nH]c1=O [3'-Azido-3'-deoxythymidine]
> 45.8 µM | > 45.8 µM | C=C1CC[C@H](O)C/C1=C/C=C1\CCC[C@]2(C)[C@@H]([C@H](C)CC[C@H](O)C(C)(C)O)CC[C@@H]12 [(24S)-24,25-Dihydroxyvitamin D3]
> 45.8 µM | > 45.8 µM | CNS(=O)(=O)C[C@H]1CC[C@H](N(C)c2[nH]cnc3nccc2-3)CC1 [Oclacitinib]
> 45.8 µM | > 45.8 µM | Nc1nc(F)nc2c1ncn2[C@@H]1O[C@H](COP(=O)(O)O)[C@@H](O)[C@@H]1O [Fludarabine phosphate]
> 45.8 µM | > 45.8 µM | C=C1C[C@H]2[C@@H]3CCC4=CC(=O)C=C[C@]4(C)[C@@]3(F)[C@@H](O)C[C@]2(C)[C@@]1(O)C(=O)COC(C)=O [Fluprednidene acetate]
> 45.8 µM | > 45.8 µM | CO/N=C(\C(=O)N[C@@H]1C(=O)N2C(C(=O)O)=C(Cn3nnc(C)n3)CS[C@H]12)c1csc(N)n1 [Cefteram]
> 45.8 µM | > 45.8 µM | CC(=O)SC[C@@H](C)C(=O)N1CCC[C@H]1C(=O)N[C@@H](Cc1ccccc1)C(=O)O [Alacepril]
> 45.8 µM | > 45.8 µM | CC#CCC(C)[C@H](O)/C=C/[C@@H]1[C@H]2c3cccc(CCCC(=O)O)c3O[C@H]2C[C@H]1O (mixture of isomers) [Beraprost sodium]
> 45.8 µM | > 45.8 µM | CCc1ccc(Cc2ccc3c(c2)[C@]2(OC3)O[C@H](CO)[C@@H](O)[C@H](O)[C@H]2O)cc1 [Tofogliflozin (hydrate)]
> 45.8 µM | > 45.8 µM | Cc1cc2nc3c(=O)[nH]c(=O)nc-3n(C[C@H](O)[C@H](O)[C@H](O)COP(=O)(O)OP(=O)(O)OC[C@H]3O[C@@H](n4cnc5c(N)ncnc54)[C@H](O)[C@@H]3O)c2cc1C [Flavin adenine dinucleotide disodium salt hydrate]
> 45.8 µM | > 45.8 µM | CC(C)N1CCN(c2ccc(OCC3COC(Cn4cncn4)(c4ccc(Cl)cc4Cl)O3)cc2)CC1 (stereo unspecified) [Terconazole]
